Source: PubChem BioAssay (NCI)
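Following 48 hours of exposure in 96-well plates, responses at five concentrations were used to interpolate endpoints linearly. GI50 is the concentration that inhibits growth by half. TGI: concentration producing complete growth inhibition.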

Assays:
Assay in all cases: NCI tumour cell line growth inhibition, 48 h
MOLT-4 leukemia = test system: MOLT-4 leukemia
HT29 colon = test system: HT29 colon
SN12C renal = test system: SN12C renal
SNB-75 CNS = test system: SNB-75 CNS
KM12 colon = test system: KM12 colon
MCF7 breast = test system: MCF7 breast
COLO 205 colon = test system: COLO 205 colon
OVCAR-8 ovarian = test system: OVCAR-8 ovarian
MALME-3M melanoma = test system: MALME-3M melanoma
MDA-MB-435 = test system: MDA-MB-435
HL-60(TB) leukemia = test system: HL-60(TB) leukemia
A498 renal = test system: A498 renal
OVCAR-5 ovarian = test system: OVCAR-5 ovarian
OVCAR-4 ovarian = test system: OVCAR-4 ovarian
EKVX NSCLC = test system: EKVX NSCLC
K-562 leukemia = test system: K-562 leukemia
NCI-H23 lung = test system: NCI-H23 lung
NCI-H522 lung = test system: NCI-H522 lung
SR leukemia = test system: SR leukemia
T-47D breast = test system: T-47D breast
CAKI-1 renal = test system: CAKI-1 renal
SNB-19 CNS = test system: SNB-19 CNS
IGROV1 ovarian = test system: IGROV1 ovarian
A549 NSCLC = test system: A549 NSCLC
HOP-62 NSCLC = test system: HOP-62 NSCLC
LOX IMVI melanoma = test system: LOX IMVI melanoma
NCI-H226 lung = test system: NCI-H226 lung
SF-539 CNS = test system: SF-539 CNS
UACC-257 melanoma = test system: UACC-257 melanoma
HS 578T breast = test system: HS 578T breast
SF-268 CNS = test system: SF-268 CNS
M14 melanoma = test system: M14 melanoma
BT-549 breast = test system: BT-549 breast
PC-3 prostate = test system: PC-3 prostate
SK-MEL-5 melanoma = test system: SK-MEL-5 melanoma
SK-MEL-28 melanoma = test system: SK-MEL-28 melanoma
HCT-116 colon = test system: HCT-116 colon
786-0 renal = test system: 786-0 renal
SF-295 CNS = test system: SF-295 CNS
HCC-2998 colon = test system: HCC-2998 colon
TK-10 renal = test system: TK-10 renal
ACHN renal = test system: ACHN renal
SK-OV-3 ovarian = test system: SK-OV-3 ovarian
U251 CNS = test system: U251 CNS
RXF 393 renal = test system: RXF 393 renal
CCRF-CEM leukemia = test system: CCRF-CEM leukemia
DU-145 prostate = test system: DU-145 prostate
UO-31 renal = test system: UO-31 renal
NCI/ADR-RES ovarian = test system: NCI/ADR-RES ovarian
OVCAR-3 ovarian = test system: OVCAR-3 ovarian
RPMI-8226 leukemia = test system: RPMI-8226 leukemia
NCI-H460 lung = test system: NCI-H460 lung
SW-620 colon = test system: SW-620 colon
UACC-62 melanoma = test system: UACC-62 melanoma
MDA-MB-231 breast = test system: MDA-MB-231 breast
HCT-15 colon = test system: HCT-15 colon

C#Cc1c(/C=C/C(=O)OCC)ccc2ccccc12
GI50 (MOLT-4 leukemia): 10.7 µM | TGI (MOLT-4 leukemia): 26.1 µM | GI50 (HT29 colon): 6.61 µM | TGI (HT29 colon): 26 µM | GI50 (SN12C renal): 13.3 µM | TGI (SN12C renal): 39.4 µM | GI50 (SNB-75 CNS): 10.1 µM | TGI (SNB-75 CNS): 40.4 µM | GI50 (KM12 colon): 5.84 µM | TGI (KM12 colon): 23.9 µM | GI50 (MCF7 breast): 24 µM | TGI (MCF7 breast): > 100 µM | GI50 (COLO 205 colon): 13.8 µM | TGI (COLO 205 colon): 33.5 µM | GI50 (OVCAR-8 ovarian): 35.1 µM | TGI (OVCAR-8 ovarian): > 100 µM | GI50 (MALME-3M melanoma): 13.1 µM | TGI (MALME-3M melanoma): 41.2 µM | GI50 (MDA-MB-435): 2.11 µM | TGI (MDA-MB-435): 5.78 µM | GI50 (HL-60(TB) leukemia): 10.6 µM | TGI (HL-60(TB) leukemia): 26.1 µM | GI50 (A498 renal): 15.2 µM | TGI (A498 renal): 37.8 µM | GI50 (OVCAR-5 ovarian): 28.9 µM | TGI (OVCAR-5 ovarian): > 100 µM | GI50 (OVCAR-4 ovarian): 20.7 µM | TGI (OVCAR-4 ovarian): 69.1 µM | GI50 (EKVX NSCLC): 28 µM | TGI (EKVX NSCLC): 84.3 µM | GI50 (K-562 leukemia): 6.98 µM | TGI (K-562 leukemia): 41.7 µM | GI50 (NCI-H23 lung): 20.1 µM | TGI (NCI-H23 lung): 47.9 µM | GI50 (NCI-H522 lung): 13.4 µM | TGI (NCI-H522 lung): 31.1 µM | GI50 (SR leukemia): 3.94 µM | TGI (SR leukemia): 17 µM | GI50 (T-47D breast): 42.8 µM | TGI (T-47D breast): > 100 µM | GI50 (CAKI-1 renal): 21.4 µM | TGI (CAKI-1 renal): 56.7 µM | GI50 (SNB-19 CNS): 36.8 µM | TGI (SNB-19 CNS): > 100 µM | GI50 (IGROV1 ovarian): 5.77 µM | TGI (IGROV1 ovarian): 26.2 µM | GI50 (A549 NSCLC): 30.4 µM | TGI (A549 NSCLC): > 100 µM | GI50 (HOP-62 NSCLC): 28.5 µM | TGI (HOP-62 NSCLC): 95.5 µM | GI50 (LOX IMVI melanoma): 13.1 µM | TGI (LOX IMVI melanoma): 27.4 µM | GI50 (NCI-H226 lung): 19.9 µM | TGI (NCI-H226 lung): 82.9 µM | GI50 (SF-539 CNS): 22.3 µM | TGI (SF-539 CNS): 48.9 µM | GI50 (UACC-257 melanoma): 27.4 µM | TGI (UACC-257 melanoma): > 100 µM | GI50 (HS 578T breast): 27.2 µM | TGI (HS 578T breast): 83.2 µM | GI50 (SF-268 CNS): 18.2 µM | TGI (SF-268 CNS): 58.5 µM | GI50 (M14 melanoma): 18.9 µM | TGI (M14 melanoma): 46 µM | GI50 (BT-549 breast): 18.7 µM | TGI (BT-549 breast): 44.7 µM | GI50 (PC-3 prostate): 18.3 µM | TGI (PC-3 prostate): 63.6 µM | GI50 (SK-MEL-5 melanoma): 15.2 µM | TGI (SK-MEL-5 melanoma): 31.9 µM | GI50 (SK-MEL-28 melanoma): 13.7 µM | TGI (SK-MEL-28 melanoma): 39.7 µM | GI50 (HCT-116 colon): 26.2 µM | TGI (HCT-116 colon): 91.6 µM | GI50 (786-0 renal): 27.5 µM | TGI (786-0 renal): 74 µM | GI50 (SF-295 CNS): 13.3 µM | TGI (SF-295 CNS): 45 µM | GI50 (HCC-2998 colon): 27.4 µM | TGI (HCC-2998 colon): > 100 µM | GI50 (TK-10 renal): 30.4 µM | TGI (TK-10 renal): 79.1 µM | GI50 (ACHN renal): 14.6 µM | TGI (ACHN renal): 31.7 µM | GI50 (SK-OV-3 ovarian): 58.8 µM | TGI (SK-OV-3 ovarian): > 100 µM | GI50 (U251 CNS): 11.2 µM | TGI (U251 CNS): 31.7 µM | GI50 (RXF 393 renal): 22.6 µM | TGI (RXF 393 renal): 69.7 µM | GI50 (CCRF-CEM leukemia): 14.6 µM | TGI (CCRF-CEM leukemia): 30.9 µM | GI50 (DU-145 prostate): 28.9 µM | TGI (DU-145 prostate): 75.6 µM | GI50 (UO-31 renal): 12.7 µM | TGI (UO-31 renal): 26.6 µM | GI50 (NCI/ADR-RES ovarian): 21.3 µM | TGI (NCI/ADR-RES ovarian): 59.2 µM | GI50 (OVCAR-3 ovarian): 16 µM | TGI (OVCAR-3 ovarian): 40.6 µM | GI50 (RPMI-8226 leukemia): 10.7 µM | TGI (RPMI-8226 leukemia): 29.3 µM | GI50 (NCI-H460 lung): 78.2 µM | TGI (NCI-H460 lung): > 100 µM | GI50 (SW-620 colon): 32.2 µM | TGI (SW-620 colon): > 100 µM | GI50 (UACC-62 melanoma): 11.6 µM | TGI (UACC-62 melanoma): 27.5 µM | GI50 (MDA-MB-231 breast): 13.4 µM | TGI (MDA-MB-231 breast): 35 µM | GI50 (HCT-15 colon): 9.99 µM | TGI (HCT-15 colon): 97.3 µM
